Results reported in publication PMC9102404, “Cationic N,N-Dimethylglycine Ester Prodrug of 2R-α-Tocotrienol Promotes Intestinal Absorption via Efficient Self-Micellization with Intrinsic Bile Acid Anion” (Molecules, 2022).
Counter-ions that a name gives are not always drawn.

Key:
[1] = Plasma α-T3 pharmacokinetics after gastrostomy administration in bile duct-ligated rats; type: in vivo, rat
Procedure: The SD rats were fasted for 16 h, and they were provided drinking water ad libitum prior to the administration of the test compounds. The rats were administered three types of mixed anesthetic agents (medetomidine, midazolam, and butorphanol) under isoflurane anesthesia. To avoid the influence of intrinsic bile flow on intestinal absorption, a catheter was inserted into the bile ducts of the rats. The catheter was ligated with strings, and intrinsic bile flow was excluded. This animal model was referred to in an animal experimental book in Japanese, titled in English as, “An atlas of experimental animal technology” published in 1998; this method is very similar to that described in Figure 5 of Jaber et al..
Dosing solutions were prepared as follows: (i) 5.88 mmol/L α-T3DMG and 5.88 mmol/L TCA in water (α-T3DMG:TCA = 1:1), (ii) 5.88 mmol/L α-T3DMG and 11.76 mmol/L TCA in water (α-T3DMG:TCA = 1:2), and (iii) 5.88 mmol/L α-T3 and 11.76 mmol/L TCA in water (α-T3:TCA = 1:2). The α-T3 was dispersed in silica powder in ethanol, and the solvent was removed in vacuo prior to dispersion in water. The ligated rats were administered […] of α-T3DMG or α-T3 via gastrostomy. The doses were 12.5 mg/kg of body weight equivalent for α-T3.
Blood samples (200 µL) were collected from the external jugular vein under isoflurane anesthesia using heparinized syringes at 0.5, 1, 2, 3, 4, 6, 8, and 24 h. […]

Water solubility = type: physicochemical; conditions: distilled water, 25 ± 1 °C, shaken 3 h
Procedure: The aqueous solubility of each ester was determined by adding 50 μmol of each compound to 1 mL of distilled water in amber test tubes and incubating the tubes at 25 ± 1 °C in a constant-temperature water bath. The test tubes were shaken for 3 h, and the suspensions were filtered using a membrane filter (MF-Millipore™ Membrane Filter, 0.45 µm pore size, Merck KGaA, Darmstadt, Germany). The filtered media, including α-T3DMG, was assayed using the liquid chromatography (LC)-MS/MS method described in Section 4.8.

[2] = Enzymatic hydrolysis of α-T3 esters in rat plasma; type: in vitro ADME; conditions: pH 7.4, 37 °C, Michaelis–Menten fit
[3] = Enzymatic hydrolysis of α-T3 esters in rat liver microsomes; type: in vitro ADME; conditions: rat liver microsome, pH 7.4, 37 °C, Michaelis–Menten fit; for Km: liver microsomes
Procedure: The hydrolysis of esters was analyzed at 37 °C in phosphate-buffered saline (PBS) containing commercially available rat liver microsomes (In Vitro Technologies, Inc., Baltimore, MD, USA). The microsomes (20 mg/mL) were adjusted to a protein concentration of 0.11 mg/mL and preincubated at 37 °C for 5 min before adding the esters.
Stock solutions of the esters were prepared in a 5% methanol aqueous solution. Enzymatic reactions were initiated by adding 50 µL ester stock solution (final concentration 50–800 μmol/L) and 50 μL PBS to 900 µL preheated reaction medium containing rat liver microsomes in amber test tubes. These reactions were incubated at 37 °C; and, at various times, 100 μL aliquots were removed and mixed with 350 µL ethanol. Samples were then vortexed for 2 min and centrifuged at 1750 g for 5 min. The aliquot was analyzed using the LC-MS/MS system described in Section 4.8. The initial hydrolytic rate (μmol/L α-T3 formed per min) was calculated from the initial slope of the plot of α-T3 concentration versus time.

[4] = Effect of eserine (esterase inhibitor) on ester hydrolysis in rat liver microsomes; type: in vitro ADME; conditions: eserine 0–2.0 mmol/L
Procedure: The effects of eserine on α-T3DMG hydrolysis in rat liver microsomes were also examined using similar methods, with 50 µL eserine aqueous solution instead of PBS, added to the mixtures with liver microsomes. Eserine was tested at 0–2.0 mmol/L.

[5] = Particle size distribution, z-potential and pH of aqueous solutions of α-T3DMG with or without TCA; type: physicochemical
Procedure: The fitting curves were obtained by the plateau model using GraphPad Prism to indicate a smoothing curve connecting each point. The z-average with PDI and the z-potential of the aqueous solution of α-[…] with or without TCA, as described in Section 4.7.1, were determined using a Zetasizer Nano ZS (MALVERN, Worcestershire, UK). Measurements were independently performed three times for each sample. The pH of the aqueous solution of α-[…] with or without TCA is described in Section 4.7.1. It was measured using a LAQUAtwin pH-11 pocket water quality meter (HORIBA, Ltd., Kyoto, Japan).

Stability in water = type: physicochemical
[6] = Appearance of aqueous solutions of α-T3DMG with or without TCA; type: physicochemical
Procedure: A stock solution of α-T3DMG was prepared in milliQ and combined with different concentrations of taurocholic acid (TCA) aqueous solution to the final molar ratios (α-T3DMG/TCA = 1/0.1–4). The fitting curves were obtained by the plateau model using GraphPad Prism to indicate a smoothing curve connecting each point.

[7] = Distribution of α-T3DMG to n-octanol and water phases; type: physicochemical; conditions: increasing TCA molar ratio
Procedure: The fitting curves were obtained by the plateau model using GraphPad Prism to indicate a smoothing curve connecting each point. The prepared solutions described in Section 4.7.1 were combined with the same volume of n-octanol and then vortexed for 2 min. The solutions were then centrifuged at 20,600× g for 20 min. The upper layer (n-octanol) and the lower layer (water) were collected, diluted with ethanol, and subjected to LC-MS/MS, as described in Section 4.7.

[8] = Toxicity observation in the in vivo study; conditions: bile duct-ligated rats, 12.5 mg/kg α-T3 equivalent, gastrostomy
[9] = 5.88 mmol/L α-T3DMG, TCA molar ratio 0
[10] = 5.88 mmol/L α-T3DMG, TCA molar ratio 0.3
[11] = 5.88 mmol/L α-T3DMG, TCA molar ratio 0.9
[12] = 5.88 mmol/L α-T3DMG, TCA molar ratio 1
[13] = 5.88 mmol/L α-T3DMG, TCA molar ratio 1.5
[14] = 5.88 mmol/L α-T3DMG, TCA molar ratio 3
[15] = 5.88 mmol/L α-T3DMG, TCA molar ratio 4
[16] = 23.52 mmol/L α-T3DMG, TCA molar ratio 0
[17] = 23.52 mmol/L α-T3DMG, TCA molar ratio 0.3
[18] = 23.52 mmol/L α-T3DMG, TCA molar ratio 1.5
[19] = 23.52 mmol/L α-T3DMG, TCA molar ratio 3
[20] = 23.52 mmol/L α-T3DMG, TCA molar ratio 4

## CC(C)=CCC/C(C)=C/CC/C(C)=C/CC[C@]1(C)CCc2c(C)c(O)c(C)c(C)c2O1 [α-T3, 2R-α-Tocotrienol]
[1]; gastrostomy, Supplementary Figure S2
  plasma α-T3 levels after postprandial (TCA 1:2) administration of α-T3 compared with fasting (TCA 1:1) administration of α-T3DMG: similar

## CNCC(=O)Oc1c(C)c(C)c2c(c1C)CC[C@@](C)(CC/C=C(\C)CC/C=C(\C)CCC=C(C)C)O2 (as salt: hydrochloride) [α-T3MG, 2R-α-Tocotrienyl N-methylglycinate]
other
  melting point: 170 to 173 °C

## CNCC(=O)Oc1c(C)c(C)c2c(c1C)CC[C@@](C)(CC/C=C(\C)CC/C=C(\C)CCC=C(C)C)O2 [α-T3MG, 2R-α-Tocotrienyl N-methylglycinate]
Water solubility
  solubility at 3 h: > 50000 µM
[2]
  Km: 1460 µM
  Vmax: 5.573e-07 mol/L/min
[3]
  Km: 176 µM
  Vmax: 2.051e-06 mol/L/min
[4]
  hydrolysis in the presence of eserine: completely inhibited

## C[C@H](CCC(=O)NCCS(=O)(=O)O)[C@H]1CC[C@H]2[C@@H]3[C@H](O)C[C@@H]4C[C@H](O)CC[C@]4(C)[C@H]3C[C@H](O)[C@]12C [TCA, taurocholic acid, reference compound]
[5]; TCA without α-T3DMG in water, 23.52 mmol/L
  z-potential: −38.9 ± 1.9 mV

## CC(C)=CCC/C(C)=C/CC/C(C)=C/CC[C@]1(C)CCc2c(C)c(OC(=O)CN(C)C)c(C)c(C)c2O1 [α-T3DMG, 2R-α-Tocotrienyl N,N-dimethylglycinate hydrochloride]
Water solubility
  solubility at 3 h: > 50000 µM
Stability in water; incubated at 5 and 20 °C for 28 days
  degradation in water: did not exhibit any degradation
Stability in water; room temperature (20 °C) for a month
  stability in water: stable
Stability in water; water, accelerated condition at 40 °C
  half-life: ~27 days
[2]
  Km: 664 µM
  Vmax: 8.138e-08 mol/L/min
[3]
  Km: 5720 µM
  Vmax: 0.0001395 mol/L/min
[4]
  hydrolysis in the presence of eserine: completely inhibited
[5]; [9]
  PDI: 0.542 ± 0.034
  Z-Average: 282.0 ± 8.9 nm
  Z-Potential: 95.4 ± 2.5 mV
  pH: 3.0
[5]; [10]
  PDI: 0.428 ± 0.014
  Z-Average: 12.6 ± 0.2 nm
  Z-Potential: 48.3 ± 7.5 mV
  pH: 3.2
[5]; [11]
  PDI: 0.228 ± 0.039
  Z-Average: 3.8 ± 1.1 nm
  Z-Potential: 19.1 ± 12.2 mV
  pH: 3.8
[5]; [12]
  PDI: 0.203 ± 0.064
  Z-Average: 5.3 ± 3.5 nm
  Z-Potential: 8.70 ± 6.17 mV
  pH: 3.8
[5]; [13]
  PDI: 0.161 ± 0.045
  Z-Average: 3.1 ± 0.0 nm
  Z-Potential: −4.35 ± 1.99 mV
  pH: 4.1
[5]; [14]
  PDI: 0.217 ± 0.009
  Z-Average: 4.3 ± 1.8 nm
  Z-Potential: −0.0299 ± 0.260 mV
  pH: 4.6
[5]; [15]
  PDI: 0.466 ± 0.068
  Z-Potential: −22.1 ± 3.37 mV
  pH: 4.7
[5]; 5.88 mmol/L α-T3DMG, TCA molar ratio 4, ambiguous data (footnote a)
  Z-Average: 163.7 ± 84.5 ^a nm
[5]; [16]
  PDI: 0.490 ± 0.020
  Z-Average: 307.8 ± 8.6 nm
  pH: 2.7
[5]; [17]
  PDI: 0.336 ± 0.026
  Z-Average: 6.6 ± 0.1 nm
  pH: 3.5
[5]; 23.52 mmol/L α-T3DMG, TCA molar ratio 0.9
  pH: 3.9
[5]; 23.52 mmol/L α-T3DMG, TCA molar ratio 0.9, ambiguous data (footnote a)
  PDI: 0.286 ± 0.231 ^a
[5]; 23.52 mmol/L α-T3DMG, TCA molar ratio 0.9, ambiguous data due to precipitation (footnote b)
  Z-Average: 4.2 ± 0.4 ^b nm
[5]; 23.52 mmol/L α-T3DMG, TCA molar ratio 1
  pH: 3.9
[5]; 23.52 mmol/L α-T3DMG, TCA molar ratio 1, ambiguous data (footnote a)
  PDI: 0.250 ± 0.179 ^a
[5]; [18]
  PDI: 0.190 ± 0.045
  Z-Average: 9.2 ± 6.1 nm
  pH: 4.4
[5]; [19]
  PDI: 0.219 ± 0.051
  Z-Average: 22.4 ± 15.1 nm
  pH: 4.8
[5]; [20]
  PDI: 0.217 ± 0.005
  Z-Average: 23.7 ± 12.2 nm
  pH: 4.8
[6]; absence of TCA, all concentrations (2.94–23.52 mmol/L)
  appearance in water: cloudy
[6]; equal molar ratio of TCA versus 23.52 mmol/L α-T3DMG
  appearance of mixed solution: white precipitation
[6]; presence of TCA, except 23.52 mmol/L α-T3DMG at α-T3DMG:TCA 1:0.9 and 1:1
  appearance in water: transparent
[7]
  α-T3DMG levels in the n-octanol phase: reached a plateau at approximately equal molar ratios of α-T3DMG and TCA
[1]; gastrostomy of α-T3DMG with TCA
  plasma levels of α-T3DMG (ester form) relative to α-T3: 4–10%
[8]
  toxicity or abnormalities in rats and blood samples: no toxicity or abnormalities were observed

## CC(C)=CCC/C(C)=C/CC/C(C)=C/CC[C@]1(C)CCc2c(C)c(OC(=O)CCC(=O)O)c(C)c(C)c2O1 [α-T3Suc, 2R-α-Tocotrienyl acid succinate]
[2]
  Km: 1290 µM
  Vmax: 1.033e-07 mol/L/min
[3]
  Km: 61.6 µM
  Vmax: 7.426e-08 mol/L/min
